Measured values from ChEMBL document CHEMBL5143587, “Antitumor Effect of Manool in a Murine Melanoma Model” (J Nat Prod, 2022).
The source made the active and inactive calls. No cut-off for these calls is given here.

What was measured:
B16-F10 [1] = assay: Antitumor activity against mouse B16-F10 cells bearing C57BL/6 mouse assessed as reduction in tumor weight at 20 mg/kg, po administered once daily for consecutive 5 days relative to control; assay type: functional; set-up: scale not given: the % may be the effect or the level left; conditions: time 5 day
B16-F10 [2] = assay: Antitumor activity against mouse B16-F10 cells bearing C57BL/6 mouse assessed as reduction in tumor weight at 40 mg/kg, po administered once daily for consecutive 5 days relative to control; assay type: functional; set-up: scale not given: the % may be the effect or the level left; conditions: time 5 day
B16-F10 [3] = assay: Antitumor activity against mouse B16-F10 cells bearing C57BL/6 mouse assessed as reduction in tumor weight at 20 mg/kg, sc administered once daily for consecutive 5 days relative to control (reference value: 50.7%); assay type: functional; set-up: scale not given: the % may be the effect or the level left; conditions: time 5 day
B16-F10 [4] = assay: Antitumor activity against mouse B16-F10 cells bearing C57BL/6 mouse assessed as reduction in tumor weight at 20 mg/kg, ip administered once daily for consecutive 5 days relative to control (reference value: 71.1%); assay type: functional; set-up: scale not given: the % may be the effect or the level left; conditions: time 5 day
B16-F10 [5] = assay: Antitumor activity against mouse B16-F10 cells bearing C57BL/6 mouse assessed as reduction in tumor weight at 40 mg/kg, ip administered once daily for consecutive 5 days relative to control (reference value: 71.1%); assay type: functional; set-up: scale not given: the % may be the effect or the level left; conditions: time 5 day
B16-F10 [6] = assay: Antitumor activity against mouse B16-F10 cells bearing C57BL/6 mouse assessed as reduction in mitotic figures at 40 mg/kg, ip administered once daily for consecutive 5 days by H and E staining microscopic analysis; assay type: functional, organism-based; conditions: time 5.0 day
B16-F10 [7] = assay: Antitumor activity against mouse B16-F10 cells bearing C57BL/6 mouse assessed as reduction in tumor weight at 20 mg/kg, po administered once daily for consecutive 5 days in presence of cisplatin relative to control; assay type: functional; set-up: scale not given: the % may be the effect or the level left; conditions: time 5 day
B16-F10 [8] = assay: Antitumor activity against mouse B16-F10 cells bearing C57BL/6 mouse assessed as reduction in number of mitotic figures at 20 mg/kg, po administered once daily for consecutive 5 days in presence of cisplatin by H and E staining microscopic analysis; assay type: functional, organism-based; conditions: time 5.0 day
[9] = Toxicity in C57BL/6 mouse xenografted with mouse B16-F10 cells assessed as change in body weight at 20 to 40 mg/kg, po administered once daily for consecutive 5 days; assay type: organism-based; conditions: in vivo, 120 h, dose 20-40 mg/kg, time 5 day
[10] = Toxicity in C57BL/6 mouse xenografted with mouse B16-F10 cells assessed as change in body weight at 20 to 40 mg/kg, ip administered once daily for consecutive 5 days; assay type: organism-based; conditions: in vivo, 120 h, dose 20-40 mg/kg, time 5 day
[11] = Toxicity in C57BL/6 mouse xenografted with mouse B16-F10 cells assessed as change in body weight at 20 to 40 mg/kg, sc administered once daily for consecutive 5 days; assay type: organism-based; conditions: in vivo, 120 h, dose 20-40 mg/kg, time 5 day
[12] = Toxicity in C57BL/6 mouse xenografted with mouse B16-F10 cells assessed as splenomegaly at 40 mg/kg, po administered once daily for consecutive 5 days; assay type: organism-based; conditions: in vivo, 120 h, time 5 day
[13] = Toxicity in C57BL/6 mouse xenografted with mouse B16-F10 cells assessed as splenomegaly at 40 mg/kg, ip administered once daily for consecutive 5 days; assay type: organism-based; conditions: in vivo, 120 h, time 5 day
[14] = Toxicity in C57BL/6 mouse xenografted with mouse B16-F10 cells assessed as splenomegaly at 40 mg/kg, sc administered once daily for consecutive 5 days; assay type: organism-based; conditions: in vivo, 120 h, time 5 day
[15] = Toxicity in C57BL/6 mouse xenografted with mouse B16-F10 cells assessed as splenomegaly at 20 mg/kg, ip administered once daily for consecutive 5 days; assay type: organism-based; conditions: in vivo, 120 h, time 5 day
[16] = Toxicity in C57BL/6 mouse xenografted with mouse B16-F10 cells assessed as body weight loss at 20 mg/kg, po administered once daily for consecutive 5 days in presence of cisplatin relative to control; assay type: organism-based; conditions: in vivo, 120 h, time 5 day
[17] = Genotoxicity in C57BL/6 mouse xenografted with mouse B16-F10 cells assessed as micronucleated polychromatic erythrocytes frequency in bone marrow cells at 20 mg/kg, po for consecutive 5 days (reference value: 6.00 +/-1.00); assay type: toxicity, organism-based; conditions: in vivo, 120 h, time 5 day
[18] = Genotoxicity in C57BL/6 mouse xenografted with mouse B16-F10 cells assessed as micronucleated polychromatic erythrocytes frequency in bone marrow cells at 40 mg/kg, po for consecutive 5 days (reference value: 6.00 +/-1.00); assay type: toxicity, organism-based; conditions: in vivo, 120 h, time 5 day
[19] = Genotoxicity in C57BL/6 mouse xenografted with mouse B16-F10 cells assessed as micronucleated polychromatic erythrocytes frequency in bone marrow cells at 20 mg/kg, sc for consecutive 5 days (reference value: 10.00 +/-2.00); assay type: toxicity, organism-based; conditions: in vivo, 120 h, time 5 day
[20] = Genotoxicity in C57BL/6 mouse xenografted with mouse B16-F10 cells assessed as micronucleated polychromatic erythrocytes frequency in bone marrow cells at 40 mg/kg, sc for consecutive 5 days (reference value: 10.00 +/-2.00); assay type: toxicity, organism-based; conditions: in vivo, 120 h, time 5 day
[21] = Genotoxicity in C57BL/6 mouse xenografted with mouse B16-F10 cells assessed as micronucleated polychromatic erythrocytes frequency in bone marrow cells at 20 mg/kg, ip for consecutive 5 days (reference value: 8.00); assay type: toxicity, organism-based; conditions: in vivo, 120 h, time 5 day
[22] = Genotoxicity in C57BL/6 mouse xenografted with mouse B16-F10 cells assessed as micronucleated polychromatic erythrocytes frequency in bone marrow cells at 40 mg/kg, ip for consecutive 5 days (reference value: 8.00); assay type: toxicity, organism-based; conditions: in vivo, 120 h, time 5 day
[23] = Genotoxicity in C57BL/6 mouse xenografted with mouse B16-F10 cells assessed as ratio of polychromatic erythrocytes to total erythrocytes in bone marrow cells at 20 mg/kg, po for consecutive 5 days (reference value: 0.90 +/-0.04); assay type: toxicity, organism-based; conditions: in vivo, 120 h, time 5 day
[24] = Genotoxicity in C57BL/6 mouse xenografted with mouse B16-F10 cells assessed as ratio of polychromatic erythrocytes to total erythrocytes in bone marrow cells at 40 mg/kg, po for consecutive 5 days (reference value: 0.90 +/-0.04); assay type: toxicity, organism-based; conditions: in vivo, 120 h, time 5 day
[25] = Genotoxicity in C57BL/6 mouse xenografted with mouse B16-F10 cells assessed as ratio of polychromatic erythrocytes to total erythrocytes in bone marrow cells at 20 mg/kg, sc for consecutive 5 days (reference value: 0.60 +/-0.01); assay type: toxicity, organism-based; conditions: in vivo, 120 h, time 5 day
[26] = Genotoxicity in C57BL/6 mouse xenografted with mouse B16-F10 cells assessed as ratio of polychromatic erythrocytes to total erythrocytes in bone marrow cells at 40 mg/kg, sc for consecutive 5 days (reference value: 0.60 +/-0.01); assay type: toxicity, organism-based; conditions: in vivo, 120 h, time 5 day
[27] = Genotoxicity in C57BL/6 mouse xenografted with mouse B16-F10 cells assessed as ratio of polychromatic erythrocytes to total erythrocytes in bone marrow cells at 20 mg/kg, ip for consecutive 5 days (reference value: 0.91+/-0.01); assay type: toxicity, organism-based; conditions: in vivo, 120 h, time 5 day
[28] = Genotoxicity in C57BL/6 mouse xenografted with mouse B16-F10 cells assessed as ratio of polychromatic erythrocytes to total erythrocytes in bone marrow cells at 40 mg/kg, ip for consecutive 5 days (reference value: 0.91+/-0.01); assay type: toxicity, organism-based; conditions: in vivo, 120 h, time 5 day
[29] = Toxicity in C57BL/6 mouse xenografted with mouse B16-F10 cells assessed as change in heart weight at 20 to 40 mg/kg, po administered once daily for consecutive 5 days relative to control; assay type: organism-based; conditions: in vivo, 120 h, dose 20-40 mg/kg, time 5 day
[30] = Toxicity in C57BL/6 mouse xenografted with mouse B16-F10 cells assessed as change in lung weight at 20 to 40 mg/kg, po administered once daily for consecutive 5 days relative to control; assay type: organism-based; conditions: in vivo, 120 h, dose 20-40 mg/kg, time 5 day
[31] = Toxicity in C57BL/6 mouse xenografted with mouse B16-F10 cells assessed as change in kidney weight at 20 to 40 mg/kg, po administered once daily for consecutive 5 days relative to control; assay type: organism-based; conditions: in vivo, 120 h, dose 20-40 mg/kg, time 5 day
[32] = Toxicity in C57BL/6 mouse xenografted with mouse B16-F10 cells assessed as reduction in spleen weight at 20 mg/kg, po administered once daily for consecutive 5 days; assay type: organism-based; conditions: in vivo, 120 h, time 5 day
[33] = Toxicity in C57BL/6 mouse xenografted with mouse B16-F10 cells assessed as reduction in spleen weight at 20 mg/kg, sc administered once daily for consecutive 5 days; assay type: organism-based; conditions: in vivo, 120 h, time 5 day
[34] = Toxicity in C57BL/6 mouse xenografted with mouse B16-F10 cells assessed as reduction in spleen weight at 20 mg/kg, ip administered once daily for consecutive 5 days; assay type: organism-based; conditions: in vivo, 120 h, time 5 day
[35] = Toxicity in C57BL/6 mouse xenografted with mouse B16-F10 cells assessed as change in heart weight at 20 to 40 mg/kg, sc administered once daily for consecutive 5 days relative to control; assay type: organism-based; conditions: in vivo, 120 h, dose 20-40 mg/kg, time 5 day
[36] = Toxicity in C57BL/6 mouse xenografted with mouse B16-F10 cells assessed as change in lung weight at 20 to 40 mg/kg, sc administered once daily for consecutive 5 days relative to control; assay type: organism-based; conditions: in vivo, 120 h, dose 20-40 mg/kg, time 5 day
[37] = Toxicity in C57BL/6 mouse xenografted with mouse B16-F10 cells assessed as change in kidney weight at 20 to 40 mg/kg, sc administered once daily for consecutive 5 days relative to control; assay type: organism-based; conditions: in vivo, 120 h, dose 20-40 mg/kg, time 5 day
[38] = Toxicity in C57BL/6 mouse xenografted with mouse B16-F10 cells assessed as change in heart weight at 20 to 40 mg/kg, ip administered once daily for consecutive 5 days relative to control; assay type: organism-based; conditions: in vivo, 120 h, dose 20-40 mg/kg, time 5 day
[39] = Toxicity in C57BL/6 mouse xenografted with mouse B16-F10 cells assessed as change in lung weight at 20 to 40 mg/kg, ip administered once daily for consecutive 5 days relative to control; assay type: organism-based; conditions: in vivo, 120 h, dose 20-40 mg/kg, time 5 day
[40] = Toxicity in C57BL/6 mouse xenografted with mouse B16-F10 cells assessed as change in kidney weight at 20 to 40 mg/kg, ip administered once daily for consecutive 5 days relative to control; assay type: organism-based; conditions: in vivo, 120 h, dose 20-40 mg/kg, time 5 day

Q: For `C=C[C@](C)(O)CC[C@H]1C(=C)CC[C@H]2C(C)(C)CCC[C@]12C`, which Activity (B16-F10 [1]) is on record?
A: 62.4%

Q: What about the Activity (B16-F10 [2]) of the same compound?
A: 9.3%

Q: And the Activity (B16-F10 [3])?
A: 38.8%

Q: What about the Activity (B16-F10 [4]) of the same compound?
A: 48.5%

Q: What about the Activity (B16-F10 [5]) of the same compound?
A: 64.9%

Q: And the Activity (B16-F10 [6])?
A: Active

Q: What about the Activity (B16-F10 [7]) of the same compound?
A: 86.7%

Q: And the Activity (B16-F10 [8])?
A: Active

Q: And the Activity [9]?
A: Non-Toxic

Q: What about the Activity [10] of the same compound?
A: Non-Toxic

Q: What about the Activity [11] of the same compound?
A: Non-Toxic

Q: What about the Activity [12] of the same compound?
A: Toxic

Q: What about the Activity [13] of the same compound?
A: Toxic

Q: And the Activity [14]?
A: Toxic

Q: What about the Activity [15] of the same compound?
A: Toxic

Q: And the Activity [16]?
A: Toxic

Q: What about the Activity [17] of the same compound?
A: 8

Q: And the Activity [18]?
A: 6

Q: What about the Activity [19] of the same compound?
A: 6

Q: And the Activity [20]?
A: 7.33

Q: What about the Activity [21] of the same compound?
A: 5.67

Q: What about the Activity [22] of the same compound?
A: 4.33

Q: What about the Ratio [23] of the same compound?
A: 0.92

Q: And the Ratio [24]?
A: 0.9

Q: What about the Ratio [25] of the same compound?
A: 0.85

Q: And the Ratio [26]?
A: 0.85

Q: What about the Ratio [27] of the same compound?
A: 0.82

Q: What about the Ratio [28] of the same compound?
A: 0.83

Q: What about the Activity [29] of the same compound?
A: Non-Toxic

Q: What about the Activity [30] of the same compound?
A: Non-Toxic

Q: And the Activity [31]?
A: Non-Toxic

Q: What about the Activity [32] of the same compound?
A: Non-Toxic

Q: And the Activity [33]?
A: Non-Toxic

Q: And the Activity [34]?
A: Toxic

Q: And the Activity [35]?
A: Non-Toxic

Q: What about the Activity [36] of the same compound?
A: Non-Toxic

Q: What about the Activity [37] of the same compound?
A: Non-Toxic

Q: What about the Activity [38] of the same compound?
A: Non-Toxic

Q: What about the Activity [39] of the same compound?
A: Non-Toxic

Q: What about the Activity [40] of the same compound?
A: Non-Toxic
